Here are results for four compounds from PMC8550792, “Evolution of kinase polypharmacology across HSP90 drug discovery” (Cell Chemical Biology, 2021).

Assay in all cases: biochemical
Assay type in all cases: biochemical

In test [1] the target is T1, 382 unique human kinases (Homo sapiens, UniProt Q9H422).
T1 construct: purchased Reaction Biology (HotSpot contract assay)
The following applies: HIPK3, compound at 10 uM, duplicate values; for remaining activity at 10 µM: read-out: % Enzyme Activity (relative to DMSO controls).

Test [2] has as its target T2, 382 unique human kinases (Homo sapiens, UniProt P10721, T670I).
T2 construct: purchased Reaction Biology (HotSpot contract assay)
The following applies: c-Kit (T670I); 10 uM; read-out: % Enzyme Activity (relative to DMSO controls).

Test [3] addresses T3, 382 unique human kinases (Homo sapiens, UniProt Q9H2G2).
T3 construct: purchased Reaction Biology (HotSpot contract assay)
The following applies: SLK/STK2, 10 uM; for remaining activity at 10 µM: read-out: % Enzyme Activity (relative to DMSO controls).

Test [4] addresses T4, 382 unique human kinases (Homo sapiens, UniProt Q8IVT5).
T4 construct: purchased Reaction Biology (HotSpot contract assay)
T4 sequence (Q8IVT5 1-923): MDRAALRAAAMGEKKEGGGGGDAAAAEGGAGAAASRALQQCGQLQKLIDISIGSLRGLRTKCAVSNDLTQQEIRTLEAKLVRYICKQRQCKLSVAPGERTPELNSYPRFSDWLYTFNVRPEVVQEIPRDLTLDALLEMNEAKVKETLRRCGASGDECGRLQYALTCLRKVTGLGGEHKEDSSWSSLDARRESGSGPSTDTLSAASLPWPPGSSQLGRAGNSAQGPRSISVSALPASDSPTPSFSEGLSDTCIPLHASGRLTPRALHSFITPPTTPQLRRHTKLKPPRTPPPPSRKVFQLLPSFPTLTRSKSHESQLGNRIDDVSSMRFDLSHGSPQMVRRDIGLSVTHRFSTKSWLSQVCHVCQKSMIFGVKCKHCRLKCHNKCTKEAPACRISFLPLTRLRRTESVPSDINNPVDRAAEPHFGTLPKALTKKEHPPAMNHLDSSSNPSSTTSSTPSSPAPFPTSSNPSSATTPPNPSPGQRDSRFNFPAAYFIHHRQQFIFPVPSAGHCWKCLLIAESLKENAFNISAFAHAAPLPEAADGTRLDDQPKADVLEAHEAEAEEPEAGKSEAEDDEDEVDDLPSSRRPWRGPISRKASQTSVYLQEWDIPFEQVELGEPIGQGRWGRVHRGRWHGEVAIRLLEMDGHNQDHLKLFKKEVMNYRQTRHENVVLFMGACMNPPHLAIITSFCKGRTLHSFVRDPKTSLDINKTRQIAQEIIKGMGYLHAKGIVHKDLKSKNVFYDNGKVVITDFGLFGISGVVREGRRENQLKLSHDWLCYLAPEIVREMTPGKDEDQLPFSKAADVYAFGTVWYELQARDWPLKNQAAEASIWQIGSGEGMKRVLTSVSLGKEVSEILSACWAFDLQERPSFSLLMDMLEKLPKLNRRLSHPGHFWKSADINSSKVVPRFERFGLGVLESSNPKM
The following applies: KSR1, 10 uM; for remaining activity at 10 µM: read-out: % Enzyme Activity (relative to DMSO controls).

Test [5] addresses T5, 382 unique human kinases (Homo sapiens, UniProt Q9H093).
T5 construct: purchased Reaction Biology (HotSpot contract assay)
T5 sequence (Q9H093 1-628): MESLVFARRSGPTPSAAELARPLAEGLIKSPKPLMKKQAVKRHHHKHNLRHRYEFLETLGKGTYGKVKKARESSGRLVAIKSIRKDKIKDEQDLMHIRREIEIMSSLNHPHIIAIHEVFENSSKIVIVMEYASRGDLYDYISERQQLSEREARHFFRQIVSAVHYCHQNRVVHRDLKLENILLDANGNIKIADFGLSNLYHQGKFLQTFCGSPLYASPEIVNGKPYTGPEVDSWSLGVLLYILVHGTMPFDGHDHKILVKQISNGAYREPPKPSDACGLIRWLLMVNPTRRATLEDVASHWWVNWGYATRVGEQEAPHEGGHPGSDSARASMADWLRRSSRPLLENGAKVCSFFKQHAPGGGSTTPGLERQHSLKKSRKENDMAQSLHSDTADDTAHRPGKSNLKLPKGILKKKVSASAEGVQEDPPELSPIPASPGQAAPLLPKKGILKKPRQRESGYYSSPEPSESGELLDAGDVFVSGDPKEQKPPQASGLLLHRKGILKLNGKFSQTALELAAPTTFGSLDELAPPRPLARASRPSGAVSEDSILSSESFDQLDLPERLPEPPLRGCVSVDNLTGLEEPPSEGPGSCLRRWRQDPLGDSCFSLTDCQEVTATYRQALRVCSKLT
Conditions: SNARK/NUAK2, 10 uM; for remaining activity at 10 µM: read-out: % Enzyme Activity (relative to DMSO controls).

For test [6], the target named is T6, 382 unique human kinases (Homo sapiens, UniProt P45985).
T6 construct: purchased Reaction Biology (HotSpot contract assay)
T6 sequence (P45985 1-399): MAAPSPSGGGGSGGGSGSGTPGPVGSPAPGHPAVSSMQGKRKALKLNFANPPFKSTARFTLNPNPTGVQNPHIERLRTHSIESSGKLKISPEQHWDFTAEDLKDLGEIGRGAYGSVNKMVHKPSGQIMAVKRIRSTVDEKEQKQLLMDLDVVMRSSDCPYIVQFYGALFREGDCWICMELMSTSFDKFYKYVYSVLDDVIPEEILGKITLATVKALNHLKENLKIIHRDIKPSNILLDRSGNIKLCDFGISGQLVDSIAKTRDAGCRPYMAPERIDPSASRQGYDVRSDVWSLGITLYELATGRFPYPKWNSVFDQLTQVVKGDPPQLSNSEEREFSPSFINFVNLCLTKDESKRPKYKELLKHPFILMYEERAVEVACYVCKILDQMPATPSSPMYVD
Conditions: MKK4, [ATP] 2.5 µM, compound 10 uM; for remaining activity at 10 µM: read-out: % Enzyme Activity (relative to DMSO controls).

T1 sequence (Q9H422 whole entry): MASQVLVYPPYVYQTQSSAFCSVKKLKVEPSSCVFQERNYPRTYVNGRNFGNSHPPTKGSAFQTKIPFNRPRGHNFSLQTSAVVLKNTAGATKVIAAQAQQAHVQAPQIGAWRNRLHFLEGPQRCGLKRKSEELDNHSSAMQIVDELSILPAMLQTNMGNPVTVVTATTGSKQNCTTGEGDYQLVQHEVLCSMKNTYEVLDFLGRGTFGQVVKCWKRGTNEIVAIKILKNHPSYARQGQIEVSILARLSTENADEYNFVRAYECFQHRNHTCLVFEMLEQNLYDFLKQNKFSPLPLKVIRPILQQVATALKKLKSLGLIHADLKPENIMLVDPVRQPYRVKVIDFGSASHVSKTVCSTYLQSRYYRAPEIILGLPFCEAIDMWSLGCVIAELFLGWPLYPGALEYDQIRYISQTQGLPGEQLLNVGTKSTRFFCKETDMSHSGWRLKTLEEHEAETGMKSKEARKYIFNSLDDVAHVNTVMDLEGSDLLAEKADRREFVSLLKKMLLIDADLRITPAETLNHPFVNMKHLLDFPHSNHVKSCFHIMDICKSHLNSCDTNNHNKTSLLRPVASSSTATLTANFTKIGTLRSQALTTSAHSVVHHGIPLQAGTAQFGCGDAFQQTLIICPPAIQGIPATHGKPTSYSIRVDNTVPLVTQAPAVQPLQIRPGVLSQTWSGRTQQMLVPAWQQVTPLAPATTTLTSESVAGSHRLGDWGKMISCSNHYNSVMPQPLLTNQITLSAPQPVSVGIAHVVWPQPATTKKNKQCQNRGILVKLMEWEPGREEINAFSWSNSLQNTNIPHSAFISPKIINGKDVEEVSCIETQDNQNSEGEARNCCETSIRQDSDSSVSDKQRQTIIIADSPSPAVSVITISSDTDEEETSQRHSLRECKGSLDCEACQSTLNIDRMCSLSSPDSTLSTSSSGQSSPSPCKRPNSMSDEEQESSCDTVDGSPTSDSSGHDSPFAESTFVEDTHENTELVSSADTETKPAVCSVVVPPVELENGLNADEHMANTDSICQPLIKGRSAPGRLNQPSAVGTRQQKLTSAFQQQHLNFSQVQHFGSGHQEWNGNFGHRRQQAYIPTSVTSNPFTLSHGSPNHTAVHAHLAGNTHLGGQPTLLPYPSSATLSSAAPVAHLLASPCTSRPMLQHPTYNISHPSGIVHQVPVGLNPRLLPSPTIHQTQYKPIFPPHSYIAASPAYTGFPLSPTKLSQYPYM
T3 sequence (Q9H2G2 whole entry): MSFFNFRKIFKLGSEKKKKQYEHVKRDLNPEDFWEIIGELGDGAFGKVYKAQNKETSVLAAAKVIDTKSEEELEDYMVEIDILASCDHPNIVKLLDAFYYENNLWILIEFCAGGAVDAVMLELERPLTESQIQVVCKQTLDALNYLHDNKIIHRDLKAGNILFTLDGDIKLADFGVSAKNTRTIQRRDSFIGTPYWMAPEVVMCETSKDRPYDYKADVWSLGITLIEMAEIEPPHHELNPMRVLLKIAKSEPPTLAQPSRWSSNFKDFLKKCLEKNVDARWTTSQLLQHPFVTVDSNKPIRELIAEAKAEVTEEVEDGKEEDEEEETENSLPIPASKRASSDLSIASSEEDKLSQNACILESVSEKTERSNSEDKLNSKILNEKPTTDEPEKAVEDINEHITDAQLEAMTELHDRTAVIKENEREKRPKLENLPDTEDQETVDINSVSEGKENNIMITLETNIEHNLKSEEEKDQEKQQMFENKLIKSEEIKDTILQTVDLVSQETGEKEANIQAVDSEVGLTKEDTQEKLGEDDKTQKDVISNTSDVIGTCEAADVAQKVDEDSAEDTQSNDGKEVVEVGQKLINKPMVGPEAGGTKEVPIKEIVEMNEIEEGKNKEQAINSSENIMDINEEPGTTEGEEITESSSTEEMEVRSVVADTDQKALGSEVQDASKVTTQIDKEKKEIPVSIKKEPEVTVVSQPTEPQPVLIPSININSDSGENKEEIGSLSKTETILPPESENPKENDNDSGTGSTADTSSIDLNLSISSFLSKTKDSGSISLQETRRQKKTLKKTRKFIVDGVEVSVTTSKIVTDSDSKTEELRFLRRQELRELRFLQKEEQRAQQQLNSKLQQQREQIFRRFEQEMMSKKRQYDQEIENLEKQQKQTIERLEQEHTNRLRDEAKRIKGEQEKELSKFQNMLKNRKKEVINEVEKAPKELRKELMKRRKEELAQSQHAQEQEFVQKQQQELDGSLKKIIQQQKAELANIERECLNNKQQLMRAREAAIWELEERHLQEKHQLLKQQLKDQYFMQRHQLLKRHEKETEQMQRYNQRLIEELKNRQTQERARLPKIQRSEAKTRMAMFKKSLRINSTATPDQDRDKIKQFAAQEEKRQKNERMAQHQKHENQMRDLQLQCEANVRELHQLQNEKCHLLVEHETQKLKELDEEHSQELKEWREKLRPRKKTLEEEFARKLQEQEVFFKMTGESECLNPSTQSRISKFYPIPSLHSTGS
T2 sequence (P10721 26-976 T670I): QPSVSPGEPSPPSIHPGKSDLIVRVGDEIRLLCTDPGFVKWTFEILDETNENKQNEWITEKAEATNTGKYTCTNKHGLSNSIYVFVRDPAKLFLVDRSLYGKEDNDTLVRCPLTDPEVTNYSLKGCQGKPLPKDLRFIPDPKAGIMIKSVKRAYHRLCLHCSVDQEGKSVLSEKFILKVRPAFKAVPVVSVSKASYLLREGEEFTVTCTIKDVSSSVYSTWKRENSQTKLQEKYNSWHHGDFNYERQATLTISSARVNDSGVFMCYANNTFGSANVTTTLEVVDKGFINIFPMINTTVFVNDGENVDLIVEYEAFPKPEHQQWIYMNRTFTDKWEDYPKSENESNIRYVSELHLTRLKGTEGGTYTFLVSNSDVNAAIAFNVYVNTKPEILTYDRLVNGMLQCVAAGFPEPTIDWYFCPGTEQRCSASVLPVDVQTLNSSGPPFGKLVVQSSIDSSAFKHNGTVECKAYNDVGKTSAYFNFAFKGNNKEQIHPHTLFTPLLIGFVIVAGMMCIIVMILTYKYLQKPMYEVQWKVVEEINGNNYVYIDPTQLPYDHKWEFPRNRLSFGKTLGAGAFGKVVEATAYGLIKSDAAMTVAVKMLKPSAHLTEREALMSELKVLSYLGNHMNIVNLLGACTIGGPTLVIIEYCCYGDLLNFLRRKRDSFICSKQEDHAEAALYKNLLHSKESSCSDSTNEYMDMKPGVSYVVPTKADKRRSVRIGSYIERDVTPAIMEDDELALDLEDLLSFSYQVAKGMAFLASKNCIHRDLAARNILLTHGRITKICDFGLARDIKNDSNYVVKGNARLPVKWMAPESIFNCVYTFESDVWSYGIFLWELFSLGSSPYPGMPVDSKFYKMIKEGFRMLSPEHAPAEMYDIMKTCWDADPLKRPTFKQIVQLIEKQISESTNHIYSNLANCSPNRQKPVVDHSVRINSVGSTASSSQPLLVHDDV

Regarding `CC(C)c1cc(-c2n[nH]c(=O)n2-c2ccc3c(ccn3C)c2)c(O)cc1O` [Ganetespib (STA9090)], the remaining activity at 10 µM at 382 unique human kinases [1] was determined as 111%; at 382 unique human kinases [2], 67.1%; on 382 unique human kinases [3] it was 79.5%.

In the case of `CC(C)c1cc(-c2n[nH]c(=O)n2-c2ccc3c(ccn3C)c2)c(O)cc1O` [Ganetespib], the values for the remaining activity at 10 µM on 382 unique human kinases [4], on 382 unique human kinases [5] and on 382 unique human kinases [6] were 99.8%, 100% and 55.2%, respectively.

As for `CCNC(=O)c1noc(-c2cc(C(C)C)c(O)cc2O)c1-c1ccc(CN2CCOCC2)cc1` [Luminespib (AUY-922)], the “% Enzyme Activity (relative to DMSO controls)” value is listed as 106.96% at 382 unique human kinases [1] and 89.63% on 382 unique human kinases [3]. Further, the remaining activity at 10 µM at 382 unique human kinases [1] turned out to be 108%; at 382 unique human kinases [2], 84.5%; on 382 unique human kinases [3], 90.2%.

In the case of `CCNC(=O)c1noc(-c2cc(C(C)C)c(O)cc2O)c1-c1ccc(CN2CCOCC2)cc1` [Luminespib], the “% Enzyme Activity (relative to DMSO controls)” value at 382 unique human kinases [4] turned out to be 97.63%; on 382 unique human kinases [5], 96.83%; at 382 unique human kinases [6], 93.71%. The remaining activity at 10 µM at 382 unique human kinases [4] was 98.8%; on 382 unique human kinases [5], 98.6%; on 382 unique human kinases [6] it was 98.4%.
